Biological target: T1, glucocorticoid receptor (GR) (Homo sapiens, UniProt P04150)
T1 sequence (P04150 521-777): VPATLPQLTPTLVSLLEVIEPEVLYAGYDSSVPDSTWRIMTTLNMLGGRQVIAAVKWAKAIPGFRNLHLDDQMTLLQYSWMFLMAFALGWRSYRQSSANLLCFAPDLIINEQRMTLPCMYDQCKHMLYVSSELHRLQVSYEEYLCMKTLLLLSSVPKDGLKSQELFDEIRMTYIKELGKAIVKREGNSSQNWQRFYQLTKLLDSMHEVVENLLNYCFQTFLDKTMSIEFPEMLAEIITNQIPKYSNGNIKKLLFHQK
Assay: Assay for agonist activity on glucocorticoid receptor (luciferase reporter, HEK293 cells transfected with pBIND-GR plasmid)
Type: cell-based
Conditions: HEK293 cells transfected with pBIND-GR, luciferase signal; read-out: GR agonist EC50
Protocol: Pharmacological Example 1: Assay for Agonist Activity on Glucocorticoid Receptor (GR)
The test compounds were subjected to a 4-fold serial dilution starting from an initial concentration of 10 µ M, generating a 10-point concentration gradient with duplicate wells for each concentration. The blank control consisted of 0.1 % DMSO.
The HEK293 stable cell line […] transfected with glucocorticoid receptor (GR) (ICE Bioscience, Lot No. TYP-20220519) was cultured in Dulbecco's Modified Eagle Medium (DMEM) supplemented with 10% fetal bovine serum (FBS) and 200 µ g/ml Hygromycin B in a cell incubator containing 5% CO2 at 37 °C. The spent medium was aspirated and the cells were washed once with phosphate-buffered saline (PBS). Then, 1 mL of TrypLE™ Express solution was added, and the cells were incubated at 37 °C for approximately 2 min. When the cells detached from the bottom of the cell culture dish, approximately 5 mL of pre-warmed complete medium at 37 °C was added. The cell suspension was gently pipetted with a pipette to dissociate clumped cells. The cell suspension was transferred to a sterile centrifuge tube and centrifuged at 1000 rpm for 5 min to pellet the cells for experiments or subculture.
HEK293 cells were digested and seeded into 6-cm culture dishes. The pBIND-GR plasmid was transfected into the HEK293 cells using a transfection reagent, resulting in HEK293 cells successfully transfected with the pBIND-GR plasmid. The cells were resuspended in phenol red-free DMEM medium containing 5% charcoal-stripped serum, counted, and then seeded into 96-well plates. The test compounds were added, and the plates were then incubated in an incubator. The luminescence signal values were measured using a multimode microplate reader following the instructions of the luciferase assay kit. The EC50 values of each test compound were calculated using the nonlinear fitting formula with GraphPad Prism 8.0 software.

C[C@]12C=CC(=O)C=C1[C@@H](F)C[C@H]1[C@@H]3C[C@H]4OC(c5ccc(NC(=O)C6COC(=O)C6)cc5)O[C@@]4(C(=O)CO)[C@@]3(C)C[C@H](O)[C@@]12F (stereo partly drawn) [Compound 2, N-(4-((2S,6aS,6bR,7S,8aS,8bS,11aR,12aS,12bS)-2,6b-Difluoro-7-hydroxy-8b-(2-hydroxyacetyl)-6a,8a-dimethyl-4-oxo-2,4,6a,6b,7,8,8a,8b,11a,12,12a,12b-dodecahydro-1H-naphtho[2',1':4,5]indeno[1,2-d][1,3]dioxol-10-yl)phenyl)-5-oxotetrahydrofuran-3-carboxamide]
EC50: 12.2 nM

C[C@]12C=CC(=O)C=C1[C@@H](F)C[C@H]1[C@@H]3C[C@H]4OC(c5ccc(COC6COC(=O)C6)cc5)O[C@@]4(C(=O)CO)[C@@]3(C)C[C@H](O)[C@@]12F (stereo partly drawn) [Compound 10, (2S,6aS,6bR,7S,8aS,8bS,11aR,12aS,12bS)-2,6b-Difluoro-7-hydroxy-8b-(2-hydroxyacetyl)-6a,8a-dimethyl-10-(4-(((5-oxotetrahydrofuran-3-yl)oxy)methyl)phenyl)-1,2,6a,6b,7,8,8a,8b,11a,12,12a,1 2b-dodecahydro-4H-naphtho[2',1':4,5]indeno[1,2-d][1,3]dioxol-4-one]
EC50: 2.65 nM

C[C@]12C=CC(=O)C=C1CC[C@H]1[C@@H]3C[C@H]4OC(c5ccc(CS(=O)(=O)C6CCOC6=O)cc5)O[C@@]4(C(=O)CO)[C@@]3(C)C[C@H](O)[C@@]12Cl (stereo partly drawn) [Compound 60, (6aS,6bR,7S,8aS,8bS,11aR,12aS,12bS)-6b-Chloro-7-hydroxy-8b-(2-hydroxyacetyl)-6a,8a-dimethyl-10-(4-(((2-oxotetrahydrofuran-3-yl)sulfonyl)methyl)phenyl)-1,2,6a,6b,7,8,8a,8b,11a,12,12a,12b-dodecahydro-4H-naphtho[2',1':4,5]indeno[1,2-d][1,3]dioxol-4-one]
EC50: 3.5 nM

C[C@]12C=CC(=O)C=C1CC[C@H]1[C@@H]3C[C@H]4OC(c5ccc(CNC6COC(=O)C6)cc5)O[C@@]4(C(=O)CO)[C@@]3(C)C[C@H](O)[C@@]12Cl (stereo partly drawn) [Compound 27, (6aS,6bR,7S,8aS,8bS,11aR,12aS,12bS)-6b-Chloro-7-hydroxy-8b-(2-hydroxyacetyl)-6a,8a-dimethyl-10-(4-(((5-oxotetrahydrofuran-3-yl)amino)methyl)phenyl)-1,2,6a,6b,7,8,8a,8b,11a,12,12a,12b-dodecahydro-4H-naphtho[2',1':4,5]indeno[1,2-d][1,3]dioxol-4-one]
EC50: 1.82 nM

C[C@]12C=CC(=O)C=C1[C@@H](F)C[C@H]1[C@@H]3C[C@H]4OC(C5CCC(NC(=O)C6COC(=O)C6)CC5)O[C@@]4(C(=O)SCF)[C@@]3(C)C[C@H](O)[C@@]12F (stereo partly drawn) [Compound 6, S-(Fluoromethyl) (2S,6aS,6bR,7S,8aS,8bS,11aR,12aS,12bS)-2,6b-difluoro-7-hydroxy-6a,8a-dimethyl-4-oxo-10-(4-(5-oxotetrahydrofuran-3-carboxamido)cyclohexyl)-1,2,4,6a,6b,7,8,8a,11a,12,12a,12b-dodecahydro-8bH-naphtho[2',1':4,5]indeno[1,2-d][1,3]dioxole-8b-carbothioate]
EC50: 8.69 nM

C[C@]12C=CC(=O)C=C1CC[C@H]1[C@@H]3C[C@H]4OC(c5ccc(NC6CCOC6=O)cc5)O[C@@]4(C(=O)CO)[C@@]3(C)C[C@H](O)[C@@]12F (stereo partly drawn) [Compound 42, (6aS,6bR,7S,8aS,8bS,11aR,12aS,12bS)-6b-Fluoro-7-hydroxy-8b-(2-hydroxyacetyl)-6a,8a-dimethyl-10-(4-((2-oxotetrahydrofuran-3-yl)amino)phenyl)-1,2,6a,6b,7,8,8a,8b,11a,12,12a,12b-dodecahy dro-4H-naphtho[2',1':4,5]indeno[1,2-d][1,3]dioxol-4-one]
EC50: 19.5 nM
